By EC50 is commonly meant the midpoint of the concentration-response curve.

The values that follow come from US20220054576A1, “PHARMACEUTICAL COMPOSITION COMPRISING EXTRACT FROM CAMELLIA JAPONICA AS ACTIVE INGREDIENT FOR PREVENTION AND TREATMENT OF VIRAL INFECTION” (HUSCION CO., LTD., priority 2019, published 2022).

Data set [1] concerns FluB Lee. The data set can be described thus: Cytopathic effect (CPE) inhibition test, Flu B Lee. The following applies: read-out: Antiviral activity EC50 FluB Lee, MDCK cells, 2 days, positive controls. (In general: Cytopathic effects are the visible damage that an infection or toxin causes in cultured cells.)
Data set [2] deals with FluA H3N2 HongKong. In words: microbe, parasite or virus in culture. It counts as cell-based, influenza A virus. The following applies: for EC50: Influenza A virus, H3N2, 48 h, MDCK cells, CPE inhibition, 2 days, positive controls, read-out: Antiviral activity EC50 FluA H3N2 HongKong.
For data set [3], the system named is FluA H1N1 PR8. The data set can be described thus: microbe, parasite or virus in culture. It counts as cell-based. The following applies: Influenza A virus, 48 h; MDCK cells, CPE inhibition, 2 days; positive controls; read-out: Antiviral activity EC50 FluA H1N1 PR8.
Data set [4] in a line: in vitro. The following applies: dog.

`NC(=O)c1ncn([C@@H]2O[C@H](CO)[C@@H](O)[C@H]2O)n1` [RBV, ribavirin]: the EC50 in data set [1] turned out to be 19.6 µM; in data set [2] it was 13.4 µM; in data set [3], 29.9 µM.

With `NC12CC3CC(CC(C3)C1)C2` [AMT, amantadine], in data set [4], the CC50 was greater than 100 µM. Also, the EC50 in data set [1] is greater than 100 µM; in data set [2], 2.3 µM; in data set [3], greater than 100 µM. In addition, in data set [2], the “Selectivity index FluA H3N2 HongKong” value is on record as greater than 43.5.
